US9688637B2, “3-amidobenzamides and uses thereof for increasing cellular levels of A3G and other A3 family members” (Northwestern University, priority 2014, dated 2017)

How the values were obtained:
A3G = A3G (Homo sapiens, UniProt Q9HC16); conditions: described by others (ref. 39); cited from earlier work
293T cells = test: Cellular cytotoxicity by counting cells after 48 hrs with compound vs DMSO; type: cell-based
Method: (§1) To screen compounds that can boost A3G levels, 293T cells (25,000 cells per well in 96-well plate) stably expressing A3G-Luc protein or A3G-Luc/Vif proteins were plated. After 24 hrs post plating culture medium was replaced with 100 μl of new medium containing either DMSO as a control or various compounds (10 μM concentration). After 48 hrs of incubation with compounds culture medium was removed from each well and replaced with 100 μl of Britelite Plus luciferase assay substrate (PerkinElmer). Following 5 min. of incubation at room temperature, 75 μl of each cell lysate was transferred to a 96-well OptiPlate 96 (PerkinElmer) and luminescence was measured in a VICTOR X2 Multilabel Reader (PerkinElmer). Relative activity of compounds for their boosting capability A3G-Luc activity was calculated by plotting DMSO-treated A3G-Luc or A3G-Luc/Vif cells as 100%. Cellular cytotoxicity was measured by counting number of cells after 48 hrs of incubation with compounds compared to DMSO treated cells.

A3G-Luc = A3G-Luc luciferase screen in 293T cells stably expressing A3G-Luc; type: cell-based, human; conditions: 48 hrs, DMSO = 100%
From the text: This background led to construction of cell lines to use in a search for compounds that might boost levels of A3s in the HIV target cells of the majority of HIV-infected persons who are non-controllers. The goal is to test a strategy of using such a booster in acute/early infection to prevent the hypothesized decrease of A3G and related A3s in an effort to increase “control” in persons lacking HLA B57/27-associated control. […] 293T and TZM-bl cells were maintained in DMEM (containing 4.5 g/liter glucose, L-glutamine, and sodium pyruvate) medium plus 10% fetal bovine serum, 50 IU/ml penicillin, and 50 μg/ml streptomycin at 37° C. and 5% CO2 throughout the experiments. […]. After collecting viral supernatant, 293T cells were infected with viral particles harboring the A3G-Luc expressing vector and selected with puromycin (0.75 μg/ml) for three days. Ten single cell clones of stable cells were isolated and tested for expression of A3G-Luc protein by both immunoblotting using antibody against A3G and measuring luciferase activity. Expressions in cell lines used for subsequent experiments are depicted in FIG. 2, upper panel. The A3G-Luc fusion protein was sensitive to Vif-mediated degradation (FIG. 3). Similar cells lines stably expressing A3F were constructed with the same methods (not shown).
as §1, with “After 24 hrs post plating culture medium was replaced with 100 μl of new medium containing either DMSO as a control or various compounds (10 μM concentration).” left out

A3G-Luc/Vif [1] = test: A3G-Luc/Vif luciferase screen in 293T cells stably co-expressing A3G-Luc and HIV-1 Vif; type: cell-based, human; conditions: 30 μM, 48 hrs, DMSO = 100%
A3G-Luc/Vif [2] = test: as above; type: cell-based, human; conditions: 10 μM, 48 hrs, DMSO = 100%
Method: FIG. 6. 293T cell clone #6 stably co-expressing A3G-Luciferase fusion protein together with HIV-1 Vif was used. Small molecule compounds were tested for their effects on stability of A3G and inhibition of Vif activity against A3G by measuring luciferase activity, relative to treatment with control DMSO only. The relative % luciferase activity was higher after treatment with NU compounds than DMSO.
[…]. After sorting, expression of both A3G-Luc and Vif was confirmed by immunoblotting using antibody against both A3G and Vif.
as §1

BC-1 = BC-1 primary effusion lymphoma cell proliferation; type: cell-based; conditions: primary effusion lymphoma (PEL) cell line (FIG. 10)
From the text: FIG. 10. A primary effusion lymphoma (PEL) cell line (BC-1, infected with both Kaposi's sarcoma herpesvirus and Epstein Barr Virus) is also killed by the listed compounds.

Chain of A3G (Q9HC16 whole entry): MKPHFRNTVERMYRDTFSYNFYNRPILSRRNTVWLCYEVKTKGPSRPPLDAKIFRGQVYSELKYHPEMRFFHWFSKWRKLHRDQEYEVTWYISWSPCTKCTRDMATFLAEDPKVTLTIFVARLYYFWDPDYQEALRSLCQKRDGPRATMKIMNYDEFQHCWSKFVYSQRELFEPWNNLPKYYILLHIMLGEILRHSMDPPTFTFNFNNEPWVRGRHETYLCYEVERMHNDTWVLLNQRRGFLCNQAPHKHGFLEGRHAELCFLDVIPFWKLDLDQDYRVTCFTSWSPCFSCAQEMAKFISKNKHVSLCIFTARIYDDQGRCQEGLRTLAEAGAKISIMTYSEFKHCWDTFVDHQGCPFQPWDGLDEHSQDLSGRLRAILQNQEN

Compound | A3G-Luc Activity (% of Relative Light Units compared to DMSO treated control) (A3G-Luc; 30 μM) | Vif-A3G-Luc Activity (% of RLUs compared to DMSO treated control) (A3G-Luc/Vif [1]) | other results
COc1ccc(C(=O)Nc2cc(OC)c(OC)c(OC)c2)cc1NC(=O)C(C)Br (stereo not shown) [IMB-26, reference compound] |  |  | binding to A3G and degradation of A3G by Vif (A3G): directly bind to A3G and prevent its degradation by Vif; toxicity to 293T cells (293T cells): toxic
COc1ccc(C(=O)Nc2cc(OC)c(OC)c(OC)c2)cc1NC(=O)C(C)C [NU-56] | 114% | 93% | 
CCC(=O)Nc1cc(C(=O)Nc2cc(OC)c(OC)c(OC)c2)ccc1OC [NU-57] | 87% | 74% | 
COc1ccc(NC(=O)c2ccc(OC)c(NC(=O)C(C)C)c2)cc1 [NU-54] | 137% | 116% | 
COc1ccc(C(=O)Nc2cc(OC)c(OC)c(OC)c2)cc1NC(C)=O [NU-58] | 123% | 93% | 
COc1ccc(C(=O)Nc2ccc(Cl)c(Cl)c2)cc1N(C)C(=O)C(C)C [NU-611] |  |  | Vif-A3G-Luc Activity (% of RLUs compared to DMSO treated control) (A3G-Luc/Vif [2]): 75%; BC-1 cell proliferation (BC-1): inhibit BC-1 cell proliferation; A3G-Luc Activity (% of Relative Light Units compared to DMSO treated control) (A3G-Luc; 10 μM): 67%
